How the values were obtained:
[1] = test system: crabgrass, large; experiment: Test A preemergence; type: in vivo, Digitaria sanguinalis; conditions: preemergence
How it was run: (§1)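 Seeds were sown in a loam soil–sand blend and given a directed soil spray preemergence; postemergence plants at 2–10 cm, one- to two-leaf stage, were sprayed with compound in non-phytotoxic solvent with surfactant. After about 10 days in a greenhouse, injury was visually rated against untreated controls (0 = no effect, 100 = complete control).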

[2] = test system: chickweed; experiment: Test C postemergence; type: in vivo, Stellaria media
How it was run: (§2)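 Seeds sown in loam–sand blend and treated preemergence with test chemicals in non-phytotoxic solvent with surfactant; postemergence plants in peat-based medium, treated at 2–18 cm (1- to 4-leaf stage). Greenhouse 13 to 15 days, then visual rating versus controls, 0 (no effect) to 100 (complete control).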

[3] = test system: barnyardgrass; experiment: Test A postemergence; type: in vivo, Echinochloa crus-galli
How it was run: as §1

[4] = test system: velvetleaf; experiment: Test C preemergence; type: in vivo, Abutilon theophrasti; conditions: for Velvetleaf plant response rating: preemergence
How it was run: as §2

[5] = test system: ryegrass, Italian; experiment: Test C preemergence; type: in vivo, Lolium multiflorum; conditions: for Ryegrass, Italian plant response rating: preemergence
How it was run: as §2

[6] = test system: morningglory; experiment: Test A preemergence; type: in vivo, Ipomoea spp.; conditions: preemergence
How it was run: as §1

[7] = test system: waterhemp; experiment: Test C preemergence; type: in vivo, Amaranthus rudis; conditions: for Waterhemp plant response rating: preemergence
How it was run: as §2

[8] = test system: pigweed; experiment: Test A postemergence; type: in vivo, Amaranthus retroflexus
How it was run: as §1

[9] = test system: barnyardgrass; experiment: Test C postemergence; type: in vivo, Echinochloa crus-galli
How it was run: as §2

[10] = test system: foxtail, giant; experiment: Test C preemergence; type: in vivo, Setaria faberii; conditions: for Foxtail, Giant plant response rating: preemergence
How it was run: as §2

[11] = test system: johnsongrass; experiment: Test C preemergence; type: in vivo, Sorghum halepense; conditions: for Johnsongrass plant response rating: preemergence
How it was run: as §2

[12] = test system: kochia; experiment: Test C postemergence; type: in vivo, Kochia scoparia
How it was run: as §2

[13] = test system: crabgrass, large; experiment: Test C postemergence; type: in vivo, Digitaria sanguinalis
How it was run: as §2

[14] = test system: crabgrass, large; experiment: Test C preemergence; type: in vivo, Digitaria sanguinalis; conditions: for Crabgrass, Large plant response rating: preemergence
How it was run: as §2

[15] = 125 g ai/ha, visual injury, 0 to 100 scale, approx. 10 days
[16] = 500 g ai/ha, visual injury after approx. 10 days, 0 to 100 scale (0 no effect, 100 complete control)
[17] = Postemergence, 31 g ai/ha, visually evaluated after 13 to 15 days
[18] = postemergence, 62 g ai/ha, scale 0 to 100
[19] = postemergence, 250 g ai/ha, scale 0 to 100 (0 no effect, 100 complete control)
[20] = postemergence, 125 g ai/ha, scale 0 to 100, 0 no effect, 100 complete control
[21] = Postemergence, 500 g ai/ha, visual rating after approx. 10 days, 0 to 100 scale (0 no effect, 100 complete control)
[22] = postemergence, 125 g ai/ha, about 10 days, visual rating on 0 to 100 scale (0 no effect, 100 complete control)
[23] = 31 g ai/ha, visual rating, scale 0 to 100 (0 no effect, 100 complete control), 13 to 15 days
[24] = 62 g ai/ha, scale 0 to 100 (0 no effect, 100 complete control), 13 to 15 days
[25] = 125 g ai/ha, scale 0 to 100, 0 is no effect, 100 is complete control

Structure (SMILES): CCc1cc(C(=O)NCC(F)(F)F)nn1Cc1nc(C(F)(F)F)nn1C [Compound 107]
- Crabgrass, Large plant response rating [1, 15]: 100
- Crabgrass, Large plant response rating [1, 16]: 100
- Plant response rating (scale of 0 to 100 where 0 is no effect and 100 is complete control), Chickweed [2, 17]: 100
- Chickweed plant response rating [2, 18]: 100
- Plant response rating, Chickweed [2, 19]: 100
- Plant response rating, Chickweed [2, 20]: 100
- Barnyardgrass plant response rating [3, 21]: 90
- Barnyardgrass plant response rating [3, 22]: 80
- Plant response rating (scale of 0 to 100), Velvetleaf ([4]; Preemergence, 250 g ai/ha): 100
- Velvetleaf plant response rating [4, 23]: 60
- Velvetleaf plant response rating [4, 24]: 85
- Velvetleaf plant response rating [4, 25]: 100
- Plant response rating (scale of 0 to 100), Ryegrass, Italian ([5]; Preemergence, 250 g ai/ha): 100
- Ryegrass, Italian plant response rating [5, 23]: 10
- Ryegrass, Italian plant response rating [5, 24]: 60
- Ryegrass, Italian plant response rating [5, 25]: 60
- Morningglory plant response rating [6, 15]: 90
- Morningglory plant response rating [6, 16]: 100
- Plant response rating (scale of 0 to 100), Waterhemp ([7]; Preemergence, 250 g ai/ha): 100
- Waterhemp plant response rating [7, 23]: 100
- Waterhemp plant response rating [7, 24]: 100
- Waterhemp plant response rating [7, 25]: 100
- Pigweed plant response rating [8, 21]: 100
- Pigweed plant response rating [8, 22]: 100
- Plant response rating (scale of 0 to 100 where 0 is no effect and 100 is complete control), Barnyardgrass [9, 17]: 0
- Barnyardgrass plant response rating [9, 18]: 0
- Plant response rating, Barnyardgrass [9, 19]: 30
- Plant response rating, Barnyardgrass [9, 20]: 5
- Plant response rating (scale of 0 to 100), Foxtail, Giant ([10]; Preemergence, 250 g ai/ha): 100
- Foxtail, Giant plant response rating [10, 23]: 100
- Foxtail, Giant plant response rating [10, 24]: 100
- Foxtail, Giant plant response rating [10, 25]: 100
- Plant response rating (scale of 0 to 100), Johnsongrass ([11]; Preemergence, 250 g ai/ha): 100
- Johnsongrass plant response rating [11, 23]: 30
- Johnsongrass plant response rating [11, 24]: 65
- Johnsongrass plant response rating [11, 25]: 90
- Plant response rating (scale of 0 to 100 where 0 is no effect and 100 is complete control), Kochia [12, 17]: 50
- Kochia plant response rating [12, 18]: 85
- Plant response rating, Kochia [12, 19]: 90
- Plant response rating, Kochia [12, 20]: 85
- Plant response rating (scale of 0 to 100 where 0 is no effect and 100 is complete control), Crabgrass, Large [13, 17]: 5
- Crabgrass, Large plant response rating [13, 18]: 30
- Plant response rating, Crabgrass, Large [13, 19]: 85
- Plant response rating, Crabgrass, Large [13, 20]: 45
- Plant response rating (scale of 0 to 100), Crabgrass, Large ([14]; Preemergence, 250 g ai/ha): 98
- Crabgrass, Large plant response rating [14, 23]: 98
- Crabgrass, Large plant response rating [14, 24]: 98
- Crabgrass, Large plant response rating [14, 25]: 98
